Laboratory results: patent US5183906A, “2- and 5-alkyl and phenyl substituted 4-(1-hydroxy, 1-acyloxy or 1-carbamoyloxy)-5-hydroxy-2 (5H)-furanones as anti-inflammatory agents” (Allergan, Inc., priority 1991, dated 1993)
Where two headings read alike, the source gives them in different places.

What was measured:
[1] = tested on: Calcium^2+ Channel; experiment: Calcium^2+ Channel Mobilization Inhibition Assay; format: cell-based; settings: cell type not stated
Protocol: Polymorphonuclear leukocytes (PMNa), gastric glands, GH3 cells, A431 cells, spleen cells, human keratinocytes corneal cells, etc. were loaded with the Ca^2+ sensitive fluorescent dye, Fura-2. The appropriate cell type was chosen and the potency and efficacy of the anti-inflammatory furanones on calcium mobilization, calcium channel inhibition was quantitated. The methods used for A431 cells listed below are representative of those used for other cells.
A431 cells were detached using a 5-10 min trypsin-EDTA treatment whereas GH3 cells were treated 2 to 5 min with a 1% pancreatin solution. Cells were immediately washed twice in a 20 mM HEPES buffer (pH 7.4) containing 120 mM NaCl, 6 mM KCl, 1 mM MgSO4, 1 mg/ml glucose and 1 mg/ml pyruvate and 1.4 mM calcium (medium A). Approximately 5×10^6 cells were suspended in medium A and incubated with 4uM fura-2-AM for 15 min at 37° C.
After washing the fura-2 loaded cells, the uptake of dye was checked using fluorescence microscopy and found to be evenly distributed in the cytosol of all cells. Fluorescence was continuously recorded with a Perkin-Elmer LS-5 spectrofluorometer. The excitation wavelength was set at 340 nm and emission wavelength set at 500 nm. The cell suspension was continually stirred, maintained at 37° C. and equilibrated for approximately 5 min before addition of various agents. [Ca^2+ i was calculated using the following formula: [formula]
All fluorescence values were measured relative to a EGTA-quenched signal determined as follows: F was the relative fluorescence measurement of the sample. Fmax was determined by lysing the cells with digitonin (100 ug/ml) in DMSO. After Fmax was determined the pH was adjusted to 8, with NaOH and Ca^2+ chelated with 3 mM EGTA to totally quench the fura-2 signal and obtain Fmin.
When quin-2- was used, cells were incubated with 10 uM quin-2- at 37° C. for 1 hour, washed and then used.

[2] = target: bee venom phospholipase A2 (Apis mellifera, UniProt P00630); experiment: biochemical; settings: pH 7.4
Chain of bee venom phospholipase A2 (P00630 34-167 limits assumed): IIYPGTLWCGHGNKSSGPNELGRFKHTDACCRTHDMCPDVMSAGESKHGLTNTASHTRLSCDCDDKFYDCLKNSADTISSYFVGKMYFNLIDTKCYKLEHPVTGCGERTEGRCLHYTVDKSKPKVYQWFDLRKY

[3] = KCl induced, read-out: IC50, Calcium^2+ Channel Mobilization Inhibition Assay, KCl induced
[4] = TRH induced, read-out: IC50, Calcium^2+ Channel Mobilization Inhibition Assay, TRH induced

Work on CCCCCCCCCCCCC(OC(C)=O)C1=CC(=O)OC1(C)O (stereo not shown) [Compound 1, 4-(1-Acetoxytridecyl)-5-hydroxy-5-methyl-2-furanone] yielded an IC50 [1, 3] of 7000 nM and an IC50 [1, 4] of 2500 nM.
In the case of CCCCCCCCCCCCC(OC(C)=O)C1=C(C)C(=O)OC1O (stereo not shown) [Compound 2, 4-(1-Acetoxytridecyl)-3-methyl-5-hydroxy-2(5H)-furanone], the IC50 [2] is reported as > 1000 nM.
CCCCCCCCCCCCC(OC(=O)Nc1ccccc1)C1=CC(=O)OC1(C)O (stereo not shown) [Compound 4, 5-Methyl-5-hydroxy-4-(1-phenylcarbamoyloxy)tridecyl-2-furanone] was tested, and the IC50 [1, 3] was 800 nM and the IC50 [1, 4] was 500 nM.
For CC1=C(CC/C(C)=C/CCC2=CCC(C3=CC(=O)OC3O)OC2O)C(C)(C)CCC1 (stereo not shown) [manoalide, reference compound], the IC50 [1, 3] was 800 nM and the IC50 [1, 4] was 600 nM.
